Among the data in patent US6994551B2, “Stable self-etching primer and adhesive bonding resin compositions, systems, and methods” (Bisco, Inc., priority 2002, dated 2006) are appearance of mixture values, retold here.

Like-named read-outs stand apart in the source and are kept apart here.

Procedure: Several experiments were performed to evaluate the solubility of Bis-MEP in various solvent systems.

In the case of `C=C(C)C(=O)OCCOP(=O)(O)OCCOC(=O)C(=C)C` [Bis-MEP, Bis-[2-(methacryloyloxy)ethyl]phosphate], the appearance of mixture result by setting is: (0.67 weight percent in water) “did not dissolve”; (2 weight percent mixture in water) “did not dissolve”; (10 weight percent in water (no ethanol)) “not homogeneous”; (14.72 weight percent in ethanol 34.40 / water 50.88 weight percent, room temperature) “clear solution”; (20 weight percent in water (no ethanol)) “not homogeneous”.
